# Columns and labels:
# Format in all cases: in vivo
# [1] = test system: bedstraw (Galium aparine); test: Test B pre-/postemergence; parameters: key: 0 is no effect; 10 is complete control; details: for Bedstraw plant response rating: Preemergence
# Source text: (§1) Seeds of bedstraw (Galium aparine), blackgrass (Alopecurus myosuroides), broadleaf signalgrass (Brachiaria decumbens), cocklebur (Xanthium strumarium), corn (Zea mays), crabgrass (Digitaria sanguinalis), giant foxtail (Setaria faberii), lambsquarters (Chenopodium album), momingglory (Ipomoea hederacea), pigweed (Amaranthus retroflexus), rape (Brassica napus), soybean (Glycine max), sugar beet (Beta vulgaris), velvetleaf (Abutilon theophrasti), wheat (Triticum aestivum), wild oat (Avena fatua) and purple nutsedge (Cyperus rotundus) tubers were planted and treated preemergence with test chemicals formulated in a non-phytotoxic solvent mixture which included a surfactant.
# (§2) At the same time, these crop and weed species were also treated with postemergence applications of test chemicals formulated in the same manner. Plants ranged in height from 2 to 18 cm (1- to 4-leaf stage) for postemergence treatments. Plant species in the flood test consisted of rice (Oryza sativa), smallflower flatsedge (Cyperus difformis), duck salad (Heteranthera limosa) and bamyardgrass (Echinochloa crus-galli) grown to the 2-leaf stage for testing. Treated plants and controls were maintained in a greenhouse for twelve to sixteen days, after which all species were compared to controls and visually evaluated. Plant response ratings, summarized in Table B, are based on a scale of 0 to 10 where 0 is no effect and 10 is complete control. A dash (−) response means no test result.
# [2] = test system: blackgrass (Alopecurus myosuroides); test: Test B pre-/postemergence; parameters: key: 0 is no effect; 10 is complete control; details: for Blackgrass plant response rating: Preemergence
# Source text: as §1, §2
# [3] = test system: broadleaf signalgrass (Brachiaria decumbens); test: Test B pre-/postemergence; parameters: key: 0 is no effect; 10 is complete control; details: for B. signalgrass plant response rating: Preemergence
# Source text: as §1, §2
# [4] = test system: cocklebur (Xanthium strumarium); test: Test B pre-/postemergence; parameters: key: 0 is no effect; 10 is complete control; details: for Plant response rating, Cocklebur: Postemergence; for Cocklebur plant response rating: Preemergence
# Source text: as §1, §2
# corn (Zea mays) = test: Test B pre-/postemergence; parameters: key: 0 is no effect; 10 is complete control; details: for Corn plant response rating: Preemergence
# Source text: as §1, §2
# [5] = test system: crabgrass (Digitaria sanguinalis); test: Test B pre-/postemergence; parameters: key: 0 is no effect; 10 is complete control; details: for Crabgrass plant response rating: Preemergence
# Source text: as §1, §2
# [6] = test system: giant foxtail (Setaria faberii); test: Test B pre-/postemergence; parameters: key: 0 is no effect; 10 is complete control
# Source text: as §1, §2
# [7] = test system: momingglory (Ipomoea hederacea); test: Test B pre-/postemergence; parameters: key: 0 is no effect; 10 is complete control
# Source text: as §1, §2
# [8] = test system: pigweed (Amaranthus retroflexus); test: Test B pre-/postemergence; parameters: key: 0 is no effect; 10 is complete control
# Source text: as §1, §2
# [9] = test system: purple nutsedge (Cyperus rotundus); test: Test B pre-/postemergence; parameters: key: 0 is no effect; 10 is complete control
# Source text: as §1, §2
# rape (Brassica napus) = test: Test B pre-/postemergence; parameters: key: 0 is no effect; 10 is complete control
# Source text: as §1, §2
# soybean (Glycine max) = test: Test B pre-/postemergence; parameters: key: 0 is no effect; 10 is complete control
# Source text: as §1, §2
# [10] = test system: sugar beet (Beta vulgaris); test: Test B pre-/postemergence; parameters: key: 0 is no effect; 10 is complete control
# Source text: as §1, §2
# [11] = test system: velvetleaf (Abutilon theophrasti); test: Test B pre-/postemergence; parameters: key: 0 is no effect; 10 is complete control
# Source text: as §1, §2
# [12] = test system: wheat (Triticum aestivum); test: Test B pre-/postemergence; parameters: key: 0 is no effect; 10 is complete control
# Source text: as §1, §2
# wild oat (Avena fatua) = test: Test B pre-/postemergence; parameters: key: 0 is no effect; 10 is complete control
# Source text: as §1, §2
# [13] = test system: bamyardgrass (Echinochloa crus-galli); test: Test B flood test
# In short: (§3)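 Plants were grown to the 2-leaf stage before treatment with test chemical, then held in a greenhouse for twelve to sixteen days. Injury was visually rated against untreated controls on a 0–10 scale, where 0 is no effect and 10 is complete control.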
# [14] = test system: duck salad (Heteranthera limosa); test: Test B flood test
# In short: as §3
# rice (Oryza sativa) = test: Test B flood test
# In short: as §3
# [15] = test system: smallflower flatsedge (Cyperus difformis); test: Test B flood test
# In short: as §3
# [16] = Rate 250 g/ha, Postemergence (so in the source)
# [17] = Rate 62 g/ha, Postemergence (flood test)
# [18] = Rate 125 g/ha, Postemergence, flood test
# [19] = Rate 250 g/ha, Postemergence (flood test species)
# [20] = Rate 125 g/ha, Postemergence section (flood test species)
smiles,measurement,setting,value
Cc1cnc(-c2ccc(Cl)cc2)nc1Cc1cccc(C(F)(F)F)c1 [Compound 28],"Plant response rating, Bedstraw","[1]; Rate 62 g/ha, Postemergence",2
same,Bedstraw plant response rating,[1]; Rate 62 g/ha,2
same,"Plant response rating, Bedstraw","[1]; Rate 125 g/ha, Postemergence",8
same,Bedstraw plant response rating,[1]; Rate 125 g/ha,4
same,"Plant response rating, Bedstraw","[1]; Rate 250 g/ha, Postemergence",8
same,"Plant response rating, Bedstraw",[1]; [16],8
same,"Plant response rating, Blackgrass","[2]; Rate 62 g/ha, Postemergence",4
same,Blackgrass plant response rating,[2]; Rate 62 g/ha,2
same,"Plant response rating, Blackgrass","[2]; Rate 125 g/ha, Postemergence",5
same,Blackgrass plant response rating,[2]; Rate 125 g/ha,5
same,"Plant response rating, Blackgrass","[2]; Rate 250 g/ha, Postemergence",8
same,"Plant response rating, Blackgrass",[2]; [16],6
same,"Plant response rating, B. signalgrass","[3]; Rate 62 g/ha, Postemergence",4
same,B. signalgrass plant response rating,[3]; Rate 62 g/ha,2
same,"Plant response rating, B. signalgrass","[3]; Rate 125 g/ha, Postemergence",5
same,B. signalgrass plant response rating,[3]; Rate 125 g/ha,5
same,"Plant response rating, B. signalgrass","[3]; Rate 250 g/ha, Postemergence",9
same,"Plant response rating, B. signalgrass","[3]; Rate 250 g/ha, Postemergence as printed in head r139 (second section for compounds 26-50)",9
same,"Plant response rating, Cocklebur",[4]; Rate 62 g/ha,7
same,Cocklebur plant response rating,[4]; Rate 62 g/ha,0
same,"Plant response rating, Cocklebur",[4]; Rate 125 g/ha,8
same,Cocklebur plant response rating,[4]; Rate 125 g/ha,0
same,"Plant response rating, Cocklebur",[4]; Rate 250 g/ha,8
same,"Plant response rating, Corn","corn (Zea mays); Rate 62 g/ha, Postemergence",2
same,Corn plant response rating,corn (Zea mays); Rate 62 g/ha,0
same,"Plant response rating, Corn","corn (Zea mays); Rate 125 g/ha, Postemergence",3
same,Corn plant response rating,corn (Zea mays); Rate 125 g/ha,0
same,"Plant response rating, Corn","corn (Zea mays); Rate 250 g/ha, Postemergence",4
same,"Plant response rating, Corn",corn (Zea mays); [16],1
same,"Plant response rating, Crabgrass","[5]; Rate 62 g/ha, Postemergence",3
same,Crabgrass plant response rating,[5]; Rate 62 g/ha,2
same,"Plant response rating, Crabgrass","[5]; Rate 125 g/ha, Postemergence",9
same,Crabgrass plant response rating,[5]; Rate 125 g/ha,4
same,"Plant response rating, Crabgrass","[5]; Rate 250 g/ha, Postemergence",10
same,"Plant response rating, Crabgrass",[5]; [16],10
same,"Plant response rating, Giant foxtail","[6]; Rate 62 g/ha, Postemergence",3
same,Giant foxtail plant response rating,"[6]; Rate 62 g/ha, Preemergence",4
same,Giant foxtail plant response rating,"[6]; Rate 125 g/ha, Postemergence",4
same,Giant foxtail plant response rating,"[6]; Rate 125 g/ha, Preemergence",9
same,"Plant response rating, Giant foxtail","[6]; Rate 250 g/ha, Postemergence",9
same,"Plant response rating, Giant foxtail",[6]; [16],10
same,"Plant response rating, Morningglory","[7]; Rate 62 g/ha, Postemergence",3
same,Morningglory plant response rating,"[7]; Rate 62 g/ha, Preemergence",2
same,Morningglory plant response rating,"[7]; Rate 125 g/ha, Postemergence",3
same,Morningglory plant response rating,"[7]; Rate 125 g/ha, Preemergence",2
same,"Plant response rating, Morningglory","[7]; Rate 250 g/ha, Postemergence",3
same,"Plant response rating, Morningglory",[7]; [16],3
same,"Plant response rating, Redroot pigweed","[8]; Rate 62 g/ha, Postemergence",8
same,Redroot pigweed plant response rating,"[8]; Rate 62 g/ha, Preemergence",5
same,Redroot pigweed plant response rating,"[8]; Rate 125 g/ha, Postemergence",9
same,Redroot pigweed plant response rating,"[8]; Rate 125 g/ha, Preemergence",6
same,"Plant response rating, Redroot pigweed","[8]; Rate 250 g/ha, Postemergence",10
same,"Plant response rating, Redroot pigweed",[8]; [16],7
same,"Plant response rating, Nutsedge","[9]; Rate 62 g/ha, Postemergence",0
same,Nutsedge plant response rating,"[9]; Rate 62 g/ha, Preemergence",0
same,Nutsedge plant response rating,"[9]; Rate 125 g/ha, Postemergence",3
same,Nutsedge plant response rating,"[9]; Rate 125 g/ha, Preemergence",0
same,"Plant response rating, Nutsedge",[9]; [16],0
same,"Plant response rating, Rape","rape (Brassica napus); Rate 62 g/ha, Postemergence",9
same,Rape plant response rating,"rape (Brassica napus); Rate 62 g/ha, Preemergence",1
same,Rape plant response rating,"rape (Brassica napus); Rate 125 g/ha, Postemergence",9
same,Rape plant response rating,"rape (Brassica napus); Rate 125 g/ha, Preemergence",2
same,"Plant response rating, Rape","rape (Brassica napus); Rate 250 g/ha, Postemergence",10
same,"Plant response rating, Rape",rape (Brassica napus); [16],4
same,"Plant response rating, Soybean","soybean (Glycine max); Rate 62 g/ha, Postemergence",4
same,Soybean plant response rating,"soybean (Glycine max); Rate 62 g/ha, Preemergence",0
same,Soybean plant response rating,"soybean (Glycine max); Rate 125 g/ha, Postemergence",7
same,"Plant response rating, Soybean","soybean (Glycine max); Rate 125 g/ha, Preemergence",0
same,"Plant response rating, Soybean","soybean (Glycine max); Rate 250 g/ha, Postemergence",7
same,"Plant response rating, Soybean",soybean (Glycine max); [16],1
same,"Plant response rating, Sugarbeets","[10]; Rate 62 g/ha, Postemergence",9
same,Sugarbeets plant response rating,"[10]; Rate 62 g/ha, Preemergence",0
same,Sugarbeets plant response rating,"[10]; Rate 125 g/ha, Postemergence",9
same,"Plant response rating, Sugarbeets","[10]; Rate 125 g/ha, Preemergence",2
same,"Plant response rating, Sugarbeets","[10]; Rate 250 g/ha, Postemergence",10
same,"Plant response rating, Sugarbeets",[10]; [16],3
same,"Plant response rating, Velvetleaf","[11]; Rate 62 g/ha, Postemergence",3
same,Velvetleaf plant response rating,"[11]; Rate 62 g/ha, Preemergence",1
same,Velvetleaf plant response rating,"[11]; Rate 125 g/ha, Postemergence",4
same,"Plant response rating, Velvetleaf","[11]; Rate 125 g/ha, Preemergence",1
same,"Plant response rating, Velvetleaf","[11]; Rate 250 g/ha, Postemergence",8
same,"Plant response rating, Velvetleaf",[11]; [16],2
same,Wheat plant response rating,"[12]; Rate 62 g/ha, Postemergence",3
same,Wheat plant response rating,"[12]; Rate 62 g/ha, Preemergence",0
same,Wheat plant response rating,"[12]; Rate 125 g/ha, Postemergence",4
same,"Plant response rating, Wheat","[12]; Rate 125 g/ha, Preemergence",0
same,"Plant response rating, Wheat","[12]; Rate 250 g/ha, Postemergence",5
same,"Plant response rating, Wheat",[12]; [16],0
same,Wild oats plant response rating,"wild oat (Avena fatua); Rate 62 g/ha, Postemergence",4
same,Wild oats plant response rating,"wild oat (Avena fatua); Rate 62 g/ha, Preemergence",3
same,Wild oats plant response rating,"wild oat (Avena fatua); Rate 125 g/ha, Postemergence",5
same,"Plant response rating, Wild oats","wild oat (Avena fatua); Rate 125 g/ha, Preemergence",3
same,"Plant response rating, Wild oats","wild oat (Avena fatua); Rate 250 g/ha, Postemergence",6
same,"Plant response rating, Wild oats",wild oat (Avena fatua); [16],4
same,"Plant response rating, Barnyardgrass",[13]; [17],3
same,"Plant response rating, Barnyardgrass",[13]; [18],4
same,"Plant response rating, Barnyardgrass",[13]; [19],5
same,"Plant response rating, Ducksalad",[14]; [17],2
same,"Plant response rating, Ducksalad",[14]; [18],3
same,"Plant response rating, Ducksalad",[14]; [19],6
same,"Plant response rating, Rice",rice (Oryza sativa); [17],2
same,Rice plant response rating,rice (Oryza sativa); [20],2
same,"Plant response rating, Rice",rice (Oryza sativa); [19],3
same,"Plant response rating, S. Flatsedge",[15]; [17],5
same,S. Flatsedge plant response rating,[15]; [20],8
same,"Plant response rating, S. Flatsedge",[15]; [19],8

# Source: patent US6525001B1, “Substituted pyrimidine and pyridine herbicides” (Mid-American Commercialization Corporation, priority 1997, dated 2003)
